Values joined by “and” are separate entries in the source; they are usually repeats but may differ in a detail not shown here. Identical values can stand only once. Like-named read-outs stand apart in the source and are kept apart here.
Key:
[1] = Pharmacokinetics in subjects with moderate hepatic impairment vs normal hepatic function (Example 5); assay type: in vivo, human; conditions: for CL renal / Cmax / AUC(0-inf) / Tmax: human, oral, 10 mg; for CL renal: plasma and urine, read-out: CLR, geometric mean (% CV) (converted); for CL renal / Cmax / AUC(0-inf) / Tmax / CL/F, geometric mean (% CV): single 10 mg; for Cmax / AUC(0-inf) / Tmax: plasma; for Cmax: read-out: Cmax, geometric mean (% CV); for AUC(0-inf): read-out: AUC(0-inf), geometric mean (% CV); for Tmax: read-out: Tmax, arithmetic mean (SD)
Description: Subjects with moderate hepatic impairment (Child-Pugh Category B, n=10) and healthy controls (n=10) were each given a single 10 mg oral dose of baxdrostat. Subjects were matched by age, sex, body mass index, race, and smoking status. Serial blood and urine samples were collected to determine plasma and urine concentrations of baxdrostat for 7 days postdose. Safety was assessed based on adverse events, clinical laboratory evaluations, vital signs, electrocardiogram and physical examinations.

patients with rHTN = test: Study 121: seated blood pressure in patients with resistant hypertension (Example 8); assay type: in vivo, human; conditions: for DBP decrease: after 12 weeks
Source text: This study was a randomized, double-blind, placebo-controlled study to evaluate the efficacy and safety of baxdrostat in patients with rHTN. Patients with rHTN were defined as being on a stable regimen of ≥3 antihypertensive agents, one of which is a diuretic with a mean seated blood pressure (BP)≥130/80 mmHg. […] The secondary objectives were to evaluate the change from baseline in mean seated DBP with each of the selected dose strengths of baxdrostat compared to placebo and to evaluate the percentage of patients achieving a seated BP response<130/80 mmHg with each of the dose strengths of baxdrostat compared to placebo after 12 weeks of treatment. […] The study was planned to enroll 348 patients.
The primary endpoint was the placebo-adjusted change from baseline to week 12 of the mean office SBP. The secondary endpoints included the placebo-adjusted change from baseline to week 12 in seated office DBP, and the percentage of patients achieving a seated BP response<130/80 mmHg with each of the selected dose strengths of baxdrostat compared to placebo after 12 weeks of treatment for rHTN.
The point estimates for the main treatment effect and for the secondary endpoints were generated by mixed model analyses of covariance that included responder status as a fixed effect. […] The change from baseline in mean seated SBP will be analyzed using a mixed model for repeated measures (MMRM) model. The analysis includes fixed effects for treatment, visit, and treatment-by-visit interaction, along with covariates of the baseline mean seated SBP and baseline glomerular filtration rate. The restricted maximum likelihood estimation (REML) approach was used with an unstructured covariance matrix.

[2] = moderate hepatic impairment vs normal hepatic function

CCC(=O)N[C@@H]1CCCc2c(-c3ccc4c(c3)CCC(=O)N4C)cncc21 [baxdrostat, (R)—N-(4-(1-methyl-2-oxo-1,2,3,4-tetrahydroquinolin-6-yl)-5,6,7,8-tetrahydroisoquinolin-8-yl) propionamide]
CL renal ([1]; moderate hepatic impairment): 4.98 mL/min | CL renal ([1]; normal hepatic function): 6.02 mL/min | Cmax ([1]; moderate hepatic impairment (n = 10)): 0.119 µg/mL | AUC(0-inf) ([1]; moderate hepatic impairment): 3.57 µg·h/mL | Tmax ([1]; moderate hepatic impairment): 2.15 h | Cmax ([1]; normal hepatic function (n = 10)): 0.104 µg/mL | AUC(0-inf) ([1]; normal hepatic function): 3.78 µg·h/mL | Tmax ([1]; normal hepatic function): 2.55 h | AUC(0-inf), ratio of GLSM (90% CI) [1, 2]: 0.95 (0.73, 1.23) | Cmax, ratio of GLSM (90% CI) [1, 2]: 1.1 (0.97, 1.32) | CL/F, geometric mean (% CV) ([1]; moderate hepatic impairment): 2.80 (30.1) L/hr | CL/F, geometric mean (% CV) ([1]; normal hepatic function): 2.64 (24.7) L/hr | DBP, LS mean change (SE) (patients with rHTN; 0.5 mg QD, 12 weeks): −8.6 (1.23) mmHg | DBP, LS mean difference vs placebo (SE) (patients with rHTN; 0.5 mg QD, 12 weeks): 0.5 (1.74) mmHg | SBP, LS mean difference vs placebo (SE) (patients with rHTN; 0.5 mg QD, 12 weeks): −2.7 (2.68) mmHg | SBP, LS mean change (SE) (patients with rHTN; 0.5 mg QD, 12 weeks, mITT): −12.1 (1.91) mmHg | treatment effect on SBP vs placebo (patients with rHTN; 0.5 mg, 12 weeks): modestly greater than that of placebo, but this difference did not reach statistical significance | DBP decrease (patients with rHTN; 0.5 mg): 8.6 mmHg | DBP, LS mean change (SE) (patients with rHTN; 1 mg QD, 12 weeks): −11.8 (1.26) mmHg | DBP, LS mean difference vs placebo (SE) (patients with rHTN; 1 mg QD, 12 weeks): −2.7 (1.75) mmHg | SBP, LS mean difference vs placebo (SE) (patients with rHTN; 1 mg QD, 12 weeks): −8.1 (2.7) mmHg and −8.1 (2.72) mmHg | SBP, LS mean change (SE) (patients with rHTN; 1 mg QD, 12 weeks, mITT): −17.5 (1.95) mmHg | placebo-adjusted SBP decline (patients with rHTN; 1 mg, 12 weeks): 8.1 mmHg | DBP decrease (patients with rHTN; 1 mg): 11.8 mmHg | DBP, LS mean change (SE) (patients with rHTN; 2 mg QD, 12 weeks): −14.3 (1.31) mmHg | DBP, LS mean difference vs placebo (SE) (patients with rHTN; 2 mg QD, 12 weeks): −5.2 (1.79) mmHg | SBP, LS mean difference vs placebo (SE) (patients with rHTN; 2 mg QD, 12 weeks): −11.0 (2.78) mmHg | SBP, LS mean change (SE) (patients with rHTN; 2 mg QD, 12 weeks, mITT): −20.3 (2.05) mmHg | DBP lowered compared to the placebo group (patients with rHTN; 2 mg, 12 weeks): 5.2 mmHg | model adjusted, placebo-corrected decline in SBP (patients with rHTN; 2 mg, 12 weeks): 11.0 mmHg | reduction in SBP (patients with rHTN; 2 mg, 12 weeks): 20.3 mmHg | DBP decrease (patients with rHTN; 2 mg): 14.3 mmHg | model adjusted and placebo-corrected change from baseline in SBP (patients with rHTN; 2 mg, intent to treat (ITT) analysis set): −11 mmHg | model adjusted and placebo-corrected change from baseline in SBP (patients with rHTN; 2 mg, per protocol analysis set): −11.1 mmHg | time course of SBP decrease (patients with rHTN; 12 weeks of treatment): rapid after treatment started and sustained throughout the 12 weeks of treatment | SBP, LS mean change (SE) (patients with rHTN; Female, 0.5 mg): −10.2 (2.77) | SBP, LS mean difference (SE) (patients with rHTN; Female, 0.5 mg vs placebo): 5.1 (4.12) | SBP, LS mean change (SE) (patients with rHTN; Female, 1 mg): −17.8 (2.74) | SBP, LS mean difference (SE) (patients with rHTN; Female, 1 mg vs placebo): −2.5 (4.09) | SBP, LS mean change (SE) (patients with rHTN; Female, 2 mg): −18.2 (3.01) | SBP, LS mean difference (SE) (patients with rHTN; Female, 2 mg vs placebo): −2.9 (4.27) | SBP, LS mean change (SE) (patients with rHTN; Hispanic/Latino Female, 0.5 mg): −15.9 (4.27) | SBP, LS mean difference (SE) (patients with rHTN; Hispanic/Latino Female, 0.5 mg vs placebo): 2.2 (5.93) | SBP, LS mean change (SE) (patients with rHTN; Hispanic/Latino Female, 1 mg): −11.5 (4.80) | SBP, LS mean difference (SE) (patients with rHTN; Hispanic/Latino Female, 1 mg vs placebo): 6.6 (6.33) | SBP, LS mean change (SE) (patients with rHTN; Hispanic/Latino Female, 2 mg): −19.4 (3.59) | SBP, LS mean difference (SE) (patients with rHTN; Hispanic/Latino Female, 2 mg vs placebo): −1.3 (5.46) | SBP, LS mean change (SE) (patients with rHTN; Hispanic/Latino, 0.5 mg): −13.3 (2.72) | SBP, LS mean difference (SE) (patients with rHTN; Hispanic/Latino, 0.5 mg vs placebo): −1.9 (3.94) | SBP, LS mean change (SE) (patients with rHTN; Hispanic/Latino, 1 mg): −16.7 (3.43) | SBP, LS mean difference (SE) (patients with rHTN; Hispanic/Latino, 1 mg vs placebo): −5.4 (4.46) | SBP, LS mean change (SE) (patients with rHTN; Hispanic/Latino, 2 mg): −21.8 (2.95) | SBP, LS mean difference (SE) (patients with rHTN; Hispanic/Latino, 2 mg vs placebo): −10.5 (4.10) | SBP, LS mean change (SE) (patients with rHTN; Male, 0.5 mg): −13.7 (2.59) | SBP, LS mean difference (SE) (patients with rHTN; Male, 0.5 mg vs placebo): −8.0 (3.53) | SBP, LS mean change (SE) (patients with rHTN; Male, 1 mg): −17.4 (2.76) | SBP, LS mean difference (SE) (patients with rHTN; Male, 1 mg vs placebo): −11.7 (3.66) | SBP, LS mean change (SE) (patients with rHTN; Male, 2 mg): −22.4 (2.73) | SBP, LS mean difference (SE) (patients with rHTN; Male, 2 mg vs placebo): −16.4 (3.63) | SBP, LS mean change (SE) (patients with rHTN; Not Hispanic/Latino, 0.5 mg): −10.9 (2.72) | SBP, LS mean difference (SE) (patients with rHTN; Not Hispanic/Latino, 0.5 mg vs placebo): −3.1 (3.75) | SBP, LS mean change (SE) (patients with rHTN; Not Hispanic/Latino, 1 mg): −17.9 (2.41) | SBP, LS mean difference (SE) (patients with rHTN; Not Hispanic/Latino, 1 mg vs placebo): −10.0 (3.52) | SBP, LS mean change (SE) (patients with rHTN; Not Hispanic/Latino, 2 mg): −19.2 (2.86) | SBP, LS mean difference (SE) (patients with rHTN; Not Hispanic/Latino, 2 mg vs placebo): −11.4 (3.84) | SBP, LS mean change (SE) (patients with rHTN; Other (not Hispanic/Latino Female), 0.5 mg): −11.1 (2.11) | SBP, LS mean difference (SE) (patients with rHTN; Other (not Hispanic/Latino Female), 0.5 mg vs placebo): −4.0 (2.99) | SBP, LS mean change (SE) (patients with rHTN; Other (not Hispanic/Latino Female), 1 mg): −18.7 (2.13) | SBP, LS mean difference (SE) (patients with rHTN; Other (not Hispanic/Latino Female), 1 mg vs placebo): −11.6 (3.00) | SBP, LS mean change (SE) (patients with rHTN; Other (not Hispanic/Latino Female), 2 mg): −20.9 (2.45) | SBP, LS mean difference (SE) (patients with rHTN; Other (not Hispanic/Latino Female), 2 mg vs placebo): −13.8 (3.24) | systolic and diastolic blood pressure (patients with rHTN; patients with resistant hypertension, FIGS. 10A and 10B): dose-dependent decreases | SBP reduction by subgroup (patients with rHTN; subgroup analyses, baseline to Day 85): greater reduction in SBP if they were male, white, not Hispanic or Latino, higher eGFR, and baseline SBP value of ≥145 mmHg
